This is an account of results in patent publication US20260137707A1, “METHODS OF MODULATING ATXN2 EXPRESSION” (University of Utah Research Foundation, priority 2022, published 2026).

For data set [1] the following is noted: cited from earlier work.
Data set [2] can be described thus: BAC-Q22 mice, survival / tolerability. Format: in vivo. Particulars: IP every other day, 17-DMAG 100 mg/kg, HSP990 4 mg/kg. The protocol:
(§1) BAC-ATXN2-Q22 (BAC-Q22) mice were used as previously described. BAC-Q22 are transgenic for the complete human ATXN2 gene with all introns and exons, including 16 kb upstream sequence driving ATXN2 expression and the complete 3′-UTR. The mice used in this study were maintained on a mixed B6;D2 background with backcrossing to wildtype vendor-purchased (Jackson Laboratories) mice every five generations. Mice were treated with 17-DMAG or HSP990 by intraperitoneal (IP) injection, 200-300 μl total volume. 17-DMAG was diluted in 40% DMSO and 0.05% Tween 20 and mice received 100 mg/kg 17-DMAG. HSP990 was diluted in 0.6% DMSO and 0.05% Tween 20 and mice received 4 mg/kg HSP990. Control treated mice included vehicle alone. Mice were treated repeatedly as described in Results. Mouse husbandry and surgical procedures were in accordance to Institutional Animal Care and Use Committee (IACUC) approved protocols.
Since 17-DMAG reduced expression of both the wildtype and mutant ATXN2 proteins, its effects were tested using only ATXN2-BAC mice harboring the non-mutant human ATXN2-Q22 gene (BAC-Q22 mice). Reliable detection of mutant ATXN2 protein by western blot in samples isolated from SCA2 BAC mice is possible, but it is challenging and involves use of the 1C2 antibody. […] Three blots were quantified. […]

The test system of data set [3] is HSP70. Kind of data set: BAC-Q22 mice, HSP70 western blot. Format: in vivo. Particulars: IP every other day, 17-DMAG 100 mg/kg, HSP990 4 mg/kg. The protocol:
as §1
Proteins were prepared, separated on precast polyacrylamide gels (Bio-Rad), transferred to Hybond (Amersham) and detected by ECL (Amersham) as previously described. […]
Since 17-DMAG reduced expression of both the wildtype and mutant ATXN2 proteins, its effects were tested using only ATXN2-BAC mice harboring the non-mutant human ATXN2-Q22 gene (BAC-Q22 mice). […] Three blots were quantified.
(A western blot detects proteins with antibodies after separation by electrophoresis.)

The subject of data set [4] is ATXN2-Q22. The experiment in a line: BAC-Q22 mice, ATXN2 western blot. Format: in vivo. The following applies: for reduction of ATXN2 protein abundance: ATXN2-BAC mice, IP, 17-DMAG 100 mg/kg, HSP990 4 mg/kg; for ATXN2 abundance: BAC-Q22 mice, IP every other day, 17-DMAG 100 mg/kg 16 days, HSP990 4 mg/kg 10 days. The protocol:
as §1
Proteins were prepared, separated on precast polyacrylamide gels (Bio-Rad), transferred to Hybond (Amersham) and detected by ECL (Amersham) as previously described.
(§2) Antibodies included the following: mouse monoclonal anti-Ataxin-2 antibody (Clone 22/Ataxin-2) (BD Biosciences, 611378), rabbit monoclonal anti-Hsp70 antibody (EPR16892) (Abcam, ab181606), mouse monoclonal anti-β-Actin-peroxidase antibody (clone AC-15) (Sigma-Aldrich, A3854), rabbit polyclonal anti-Staufen antibody (Novus Biologicals, NBP1-33202), mouse monoclonal anti-CHOP (L63F7) antibody (Cell Signaling Technology, 2895), rabbit polyclonal anti-phospho-eIF2a (Ser51) antibody (Cell Signaling Technology, 9721), rabbit polyclonal anti-mTOR antibody (Cell Signaling Technology, 2972), rabbit polyclonal anti-SQSTM1/p62 antibody (Cell Signaling Technology, 5114), rabbit polyclonal anti-LC3B antibody (Novus Biologicals, NB100-2220), rabbit monoclonal anti-BiP antibody (C50B12) (Cell Signaling Technology, 3177). Secondary antibodies included peroxidase-conjugated horse anti-mouse IgG (Vector Laboratories, PI-2000) and peroxidase AffiniPure goat anti-rabbit IgG (Jackson ImmunoResearch Laboratories, 111-035-144).
Since 17-DMAG reduced expression of both the wildtype and mutant ATXN2 proteins, its effects were tested using only ATXN2-BAC mice harboring the non-mutant human ATXN2-Q22 gene (BAC-Q22 mice). Reliable detection of mutant ATXN2 protein by western blot in samples isolated from SCA2 BAC mice is possible, but it is challenging and involves use of the 1C2 antibody. To test efficacy of 17-DMAG in the wildtype ATXN2 mice, 27 wk old BAC-Q22 mice were treated (n=4 per group, 2 males, 2 females) every other day over 16-days (days 1, 3, 5, 7, 9, 11, 13, 15) then sacrificed on day 16. […] Three blots were quantified.

Data set [5] concerns ATXN2-luc mRNA. Kind of data set: ATXN2-luc mRNA abundance in H2 cells by quantitative PCR. The following applies: 1 and 10 uM, 48 hrs. It is filed as cell-based.
Text: Total RNA was extracted from cells cultured in 24-well plates using the RNeasy Mini-Kit (Qiagen Inc.) according to the manufacturer's protocol. DNAse I treated RNAs were used to synthesize cDNA using ProtoScript cDNA synthesis kit (New England Biolabs Inc.). Sets of primers used for qPCR included ATXN2 primers ATXN2-F (5′-[sequence]-3′) & ATXN2-R (5′-[sequence]-3′), ATP1A2 primers ATP1A2-F (5′-[sequence]-3′) & ATP1A2-R (5′-[sequence]-3′), GAPDH primers GAPDH-F133 (5′-[sequence]-3′) & GAPDH-R333 (5′-[sequence]-3′), and mouse Actb primers Actb-F (5′-[sequence]-3′) & Actb-R (5′-[sequence]-3′). qPCR was performed in the Bio-Rad CFX96 instrument (Bio-Rad Inc.) with the Power SYBR Green PCR master mix (Applied Biosystems Inc.). PCR amplification was carried out for 45 cycles. Cycling parameters were denaturation (95° C. for 10 s), annealing (60° C. for 10 s), extension (72° C. for 40 s).
The ATXN2-luc mRNA abundance was determined by quantitative PCR using primers that amplify the luciferase gene. Probabilities are from one-way ANOVA and post-hoc Bonferroni corrected t-tests: ns, not significant; **, P<0.01.
The conditions of data set [6]: cited from earlier work. This is another data set of the same source.
In data set [7] the test system is STAU1, mTOR, p62, LC3b, CHOP, eIF3α, BiP. The experiment in a line: Western blot of STAU1, autophagy and UPR proteins in ATXN2-Q58 HEK-293 KI cells. Format: cell-based.
Text: as §2
To determine if lowering ATXN2-Q58 in HEK-293 KI cells could restore pathways that are abnormal in SCA2, several proteins were evaluated by western blotting and RNAs by quantitative PCR following 17-DMAG treatment. […] Probabilities are from one-way ANOVA and post-hoc Bonferroni corrected t-tests: ns, not significant; *, p<0.05; **, p<0.01, ***, p<0.001. […]

Data set [8] concerns HSP70. Kind of data set: Western blot of HSP70 in cells (HSP90 target engagement). It is filed as cell-based. Particulars: cultured cells, western blotting.
Text: Probabilities are from one-way ANOVA and post-hoc Bonferroni corrected t-tests: ns, not significant; **, P<0.01.
Probabilities are from one-way ANOVA and post-hoc Bonferroni corrected t-tests: ns, not significant; *, p<0.05; **, p<0.01, ***, p<0.001. The n number of blots ranged from 3 to 9.
Data set [9] concerns mutant ATXN2-Q58 protein. The experiment in a line: Western blot of mutant ATXN2-Q58 protein in HEK-293 KI cells. Particulars: western blotting. It is filed as cell-based.
Text: The n number of blots ranged from 3 to 9.
Data set [10] has as its system ATXN3. The following applies: ATXN3-135Q transgenic mice, cited from earlier work.
Data set [11] concerns endogenous non-mutant ATXN2 protein. The experiment in a line: Western blot of endogenous non-mutant ATXN2 protein in HEK-293 cells. Format: cell-based. The following applies: western blotting.

Entries after “also recorded” stand apart in the source; their conditions may differ.

In the case of `COc1cccc(-c2cc(F)ccc2[C@H]2Cc3nc(N)nc(C)c3C(=O)N2)n1` [HSP990], the “toxicity in clinical trial” value in data set [1] is listed as “dose-limiting neurotoxicities”. Further, the survival / tolerability result in [2] is listed as “the two females in the HSP990 treatment group did not survive; also recorded: half of the mice treated with HSP990 did not survive treatment”. In [3], the HSP70 entry is on record as “increased HSP70”. In [4], the “reduction of ATXN2 protein abundance” value came to 80% and the ATXN2 abundance entry is listed as “reduced ATXN2 abundance”.

With `CO[C@H]1/C=C\C=C(/C)C(=O)NC2=CC(=O)C(NCCN(C)C)=C(C[C@@H](C)C[C@H](OC)[C@H](O)[C@@H](C)/C=C(\C)[C@@H]1OC(N)=O)C2=O` [17-DMAG, 17-dimethylaminoethylamino-17-demethoxygeldanamycin], the ATXN2-luc transcription entry in data set [5] is reported as “reduction of ATXN2-luc transcription”. Moreover, the oral bioavailability result in [6] is “orally bioavailable”. In data set [7], the BiP result is recorded as “further elevated BiP”; the “abundance of STAU1, autophagy marker proteins (mTOR, p62, LC3b) and UPR proteins CHOP and eIF3α” value is on record as “restored abundance”. For the same compound, the HSP70 entry in [8] is recorded as “elevated HSP70; also recorded: increase in HSP70”. For the same compound, the “mutant ATXN2-Q58 protein” value in data set [9] is “reduced the expression; also recorded: significantly reduced mutant ATXN2 protein; also recorded: reduction of ATXN2 protein”. The survival / tolerability entry in data set [2] was “well-tolerated”. Besides, the ATXN3 protein abundance result in data set [10] (CNS tissues) is listed as “reduced ATXN3 protein abundance in CNS tissues”. Further, the motor coordination result in data set [10] is “improved motor coordination”. For the same compound, the “expression of endogenous non-mutant ATXN2 protein” value in data set [11] is “reduced the expression; also recorded: reduction of endogenous non-mutant ATXN2 protein”. Besides, the HSP70 entry in data set [3] was “HSP70 induction”. In data set [4], the “reduction of ATXN2 protein abundance” value stood at 90% and the ATXN2 abundance result is reported as “reduced ATXN2 abundance”.
